Broadly, the Ki is the dissociation constant of the complex between target and ligand, obtained from inhibition or displacement.

Series [1] deals with T1, Human histamine H3 receptor (Homo sapiens, UniProt Q9Y5N1).
T1 construct: purchased PerkinElmer
Kind of series: Radioligand binding assay with [3H]-N-α-methylhistamine. Here is the method: Human histamine H3 receptor membrane (PerkinElmer) were incubated with 1.0 nM [^3H]—N-α-methylhistamine (PerkinElmer) in the presence or absence of increasing concentrations of ligands for H3 receptor competition binding. The binding incubations were in a final volume of 0.1 ml buffer (50 mMTris pH 7.5, 5 mM MgCl2) at 28° C. for 120 minutes. Thioperamide (10 μM) was used to define non-specific binding.
All binding reactions were terminated by transferring 70 μl binding reaction from the reaction plate into filtration plates (Zeba 96-well Spin Desalting Plates, Thermo Scientific), followed by centrifugation at 1000 g for 2 min to collect the protein with bound radioligand. 200 μl of microscint-40 were added to determine the bound radiolabel by a Wallac Microbeta Trilux 2450 (Perkin Elmer). For all radioligand competition binding assays, IC50 values and Hill slopes were determined by GraphPad Prism: log(inhibitor) vs. response with variable slope. Ki was calculated using the equation in Biochem. Pharmacol. 1973. 22 (23), 3099-3108, from Cheng and Prusoff: Ki=IC50/{1+([radioligand]/Kd)}.

For series [2], the system named is tele-methylhistamine (tMeHA). Kind of series: Ex vivo PD determination: brain tele-methylhistamine time course in rats. Set-up: species or system rat. The following applies: 10 mg/kg oral. Here is the method: Male Sprague-Dawley rats (Shanghai SLAC Laboratory Animal Co. LTD) of 6-7 weeks age were used. Animals were housed in a temperature and humidity-controlled environment on a 12 h light/dark. All animals had free access to food and water. All procedures were approved by Institutional Animal Care and Use Committee of ChemPartner Co., LTD (IACUC Protocol NO: A998HL0002).
For bioanalysis of brain tissue tele-methylhistamine samples were further processed.
One aliquot of the stock solution was diluted using ethanol/phosphate buffer pH 7.4 (85:15, v/v) to achieve a series working solutions. The brain homogenate was centrifuged at 12000 rpm for 5 min at 4° C. Then 10 μL supernatant of the brain homogenate sample was added to 60 μL internal standard (d3-1-methyl-histamine, 20 ng/mL). The mixture was vortexed for 2 min and centrifuged at 12000 rpm for 5 min at 4° C. Finally, 60 μL supernatant was added and 3 μL supernatant was injected into LC-MS/MS for analysis (Agilent 6410, triple quadrupole mass spectrometer, Mobile phase A: H2O— 0.1% NH3, Mobile phase B: methanol— 0.1% NH3, Column: Ultimate XB-C18 (2.1×50 mm, 5 μm, Flow rate: 0.45 mL/min, temperature: 40° C.).

The test system of series [3] is H3 receptor. Kind of series: Ex vivo receptor occupancy assay in rat frontal cortex. The settings on record: rats; for RO: 10 mg/kg oral. Here is the method: Male Sprague-Dawley rats (from Shanghai SLAC Laboratory Animal CO. LTD) at the age of 5-6 weeks were used. The animals were housed in a temperature and humidity-controlled environment on a 12 h light/dark cycle with food and water available ad libitum. All the procedures were approved by Institutional Animal Care and Use Committee of Chempartner Co., LTD (IACUC Protocol NO: A998HL0076).
Compounds were dissolved in 50 mM citrate buffer (pH 3.5), or saline. The compound was then diluted stepwise to the final concentration with vehicle. Animals were dosed by p.o. or i.v. in 1 ml/kg bodyweight.
At each time point, rats were decapitated immediately. Intact brain was removed, immersed and washed in pre-cooled saline. After drying with filter paper, frontal cortex was dissected with a double-blade with an about 30° angle starting at ⅓ of anterior rat brain (weight of most brain tissues around 70±10 mg). Brain tissue was transferred into a pre-weighed tube with homogenizer beads. The tubes were weighed again and the tissue net weight was recorded. Tissue sampling was done on ice with intervals of 1 min. Then, 50 mM HEPES (Gibco® by Life Technologies) buffer were added (equivalent to 3.75 μl/mg tissue weight) followed by homogenization (frequency 30/sec for 20 sec, TissueLyser, Quiagen).
The crude homogenate samples of rat frontal cortex were used to measure H3 receptor binding as described above with [^3H]—N-α-methylhistamine as radioligand. The protein concentration of each sample was determined by Pierce BCA Protein Assay Kit (Thermo).
The cortical homogenate was added to a 96-well plate containing [^3H]—N-α-methylhistamine (0.1 nM), in a volume of 0.2 ml (final protein concentration 4 μg/μl), incubated at 28° C. for 15 min and the reaction was stopped by rapid filtration using a filtration plate (Millipore multiscreen GF/B plate). The filters were washed three times with ice-cold wash buffer (50 mM Tris, pH 7.5) and 250 μl of Microscint-40 were added followed by determination of the bound radiolabel with a Wallac Microbeta Trilux 2450 (Perkin Elmer). Nonspecific binding was determined in the presence of 10 μM thioperamide. Each data point was obtained from a total of at least four animals. The inhibition of specific [^3H]NAMH binding, calculated as relative to vehicle-treated samples, was determined to provide an indication of receptor occupancy by the compound. The dose-dependent % RO and time course were analyzed using GraphPad Prism. The dose response was fit using GraphPad Prism: log(inhibitor) vs. response with variable slope.

Series [4] in a line: Rat brain and plasma PK. The class given is in vivo. The following applies: 10 mg/kg oral, rats.

T1 sequence (Q9Y5N1 whole entry): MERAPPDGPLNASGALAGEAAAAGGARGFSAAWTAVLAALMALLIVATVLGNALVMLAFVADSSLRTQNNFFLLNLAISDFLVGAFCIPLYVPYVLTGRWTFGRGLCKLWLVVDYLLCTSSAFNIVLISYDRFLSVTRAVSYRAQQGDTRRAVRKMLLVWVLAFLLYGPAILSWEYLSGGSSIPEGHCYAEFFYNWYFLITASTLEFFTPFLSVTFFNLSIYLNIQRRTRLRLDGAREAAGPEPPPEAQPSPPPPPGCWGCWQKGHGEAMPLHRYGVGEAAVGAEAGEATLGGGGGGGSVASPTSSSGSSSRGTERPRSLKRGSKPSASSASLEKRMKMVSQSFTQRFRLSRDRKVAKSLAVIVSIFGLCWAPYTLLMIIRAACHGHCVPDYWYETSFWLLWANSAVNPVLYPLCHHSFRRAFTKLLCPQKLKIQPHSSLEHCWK

Take `Cn1nc(N2CCC(OC(=O)N3CCN(C4CCC4)CC3)CC2)ccc1=O` [Compound (I), 1-(1-methyl-6-oxo-1,6-dihydropyridazin-3-yl)piperidin-4-yl 4-cyclobutylpiperazine-1-carboxylate]: in series [1] (human H3 receptors), the “affinity fold higher compared to bavisant” value is listed as 12 fold. Moreover, the “affinity fold higher compared to pitolisant” value in series [1] (human H3 receptors) was found to be 18 fold. The Ki in series [1] (human recombinant H3R, 1.0 nM [3H]-N-α-methylhistamine, Cheng-Prusoff) came to 8.5 nM. Further, the “time at which tMeHA increase starts” value in series [2] is given as 30 min. Also, in series [2], the “time of tMeHA peak” value is 2 h. For the same molecule, in series [2] (8 h), the “tMeHA level at 8 h” value is “stayed slightly elevated”. Further, the “effect on tMeHA levels” value in series [2] (brain) is “increased”. The “duration of histamine release after compound administration” value in series [2] (deconvolution of the PD data) is “about 2 h”. The RO in series [3] (1 h time point (initial RO)) is reported as 95%; in series [3] (4 h), 50%; in series [3] (4 h, listed as LML134), 39%; in series [3] (8 h) it was 0%; in series [3] (8 h, listed as LML134), “almost not RO was detectable”. Further, the “dose that resulted in H3 receptor occupancy of 80-90%” value in series [3] (oral dosing, 1 h after compound administration) is 10 mg/kg. Further, in series [4], the total brain exposure entry is listed as “intermediate”. Further, the brain exposure entry in series [4] (8 h time point) is “close to detection limit”. Besides, the concentration at 4 h in series [4] (male, Sprague-Dawley, rat, brain, 4 h time point, read-out: brain exposure) was 21 ng/g.

Source of the values: US20210379062A1, “The use of a H3R inverse agonist for the treatment of excessive daytime sleepiness associated with parkinson's disease (PD)” (Novartis AG, priority 2018, published 2021).
